The values below come from patent US20120077802A1 (SUNOVION PHARMACEUTICALS INC., priority 2009, published 2012).

Where two headings read alike, the source gives them in different places.

In data set [1] the target is T1, human histamine H3 receptor (Homo sapiens, UniProt Q9Y5N1).
T1 construct: host or cells: cells expressing the human H3 receptor
Put plainly: H3 GTPγS assay (SPA method), histamine H3 in vitro assay. In kind it is biochemical. The settings on record: GTPγ[35S] SPA, membranes of cells expressing human H3 receptor; in one embodiment HCl salts tested; read-out: Potency (functional potency as indicated by IC50).

Data set [2] can be described thus: In vivo rat PK, brain exposures. The settings on record: adult male rats, oral gavage in water; for concentration at 1 hr: 1 hr after dosing, read-out: Compound Concentration (ng/g rat brain) 1 hr; for concentration at 24 hr: 24 hr after dosing, read-out: Compound Concentration (ng/g rat brain) 24 hr. Here is the method: In vivo rat PK studies were performed using certain compounds provided herein. In one embodiment, a compound was dissolved in water and was administered to adult male rats (n=3 per time point) by oral gavage at a dose of 3 to 10 mg/kg. The plasma samples were collected and brain tissues were harvested at various time points after dosing, e.g., 15 min, 30 min, 1 hr, 2 hr, and 24 hr after dosing. The PK samples were analyzed; and the compound concentrations in these samples were quantified by LC/MS. The pKa values of the R^6 moiety of the compounds were calculated using ACD Lab (Version 12.01).

T1 sequence (Q9Y5N1 whole entry): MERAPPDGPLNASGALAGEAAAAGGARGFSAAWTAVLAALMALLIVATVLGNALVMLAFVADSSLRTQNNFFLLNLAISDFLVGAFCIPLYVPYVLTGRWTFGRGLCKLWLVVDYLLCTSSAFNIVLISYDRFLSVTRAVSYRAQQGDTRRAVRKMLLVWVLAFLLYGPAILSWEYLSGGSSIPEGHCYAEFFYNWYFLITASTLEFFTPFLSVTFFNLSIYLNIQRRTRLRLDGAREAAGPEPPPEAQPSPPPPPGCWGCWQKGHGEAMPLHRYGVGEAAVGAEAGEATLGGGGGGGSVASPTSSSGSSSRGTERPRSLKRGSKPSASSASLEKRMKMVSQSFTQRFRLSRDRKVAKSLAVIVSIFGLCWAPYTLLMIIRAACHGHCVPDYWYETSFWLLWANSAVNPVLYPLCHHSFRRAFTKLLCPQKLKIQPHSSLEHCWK

The IC50 is the midpoint of a concentration-inhibition curve. With `c1cn2cc(-c3ccc4c(c3)CC3(CCN(C5CCC5)CC3)O4)ccc2n1` [Compound 30, 1′-Cyclobutyl-5-(imidazo[1,2-a]pyridin-6-yl)-3H-spiro[benzofuran-2,4′-piperidine]], the IC50 in data set [1] was at most 10 nM. For the same compound, in data set [2] (10 mg/kg), the concentration at 1 hr came out at 5200 ng/g and the concentration at 24 hr is 250 ng/g.
Turning to `N#Cc1ccc(-c2ccc3c(c2)CC2(CCN(C4CCC4)CC2)O3)cc1` [Compound 5, 4-(1′-Cyclobutyl-3H-spiro[benzofuran-2,4′-piperidine]-5-yl)benzonitrile], the IC50 in data set [1] is at most 10 nM. In data set [2] (5 mg/kg), the concentration at 1 hr is 3100 ng/g and the concentration at 24 hr was found to be 400 ng/g.
For `N#Cc1ccc(-c2ccc3c(c2)CC2(CCN(CC4CCC4)CC2)O3)cc1` [Compound 21, 4-(1′-(Cyclobutylmethyl)-3H-spiro[benzofuran-2,4′-piperidine]-5-yl)benzonitrile], the IC50 in data set [1] was at most 1000 nM.
The same measure, in the same setting: under `CC(C1CCC1)N1CCC2(CC1)Cc1cc(-c3ccc4[nH]ccc4c3)ccc1O2` (stereo not drawn) [Compound 13, 1′-(1-Cyclobutylethyl)-5-(1H-indol-5-yl)-3H-spiro[benzofuran-2,4′-piperidine]] stands at most 100 nM.
`CN(C)Cc1ccc2c(c1)CC1(CCN(C3CCC3)CC1)O2` [Compound 39, 1-(1′-Cyclobutyl-3H-spiro[benzofuran-2,4′-piperidine]-5-yl)-N,N-dimethylmethanamine]: the IC50 in data set [1] was at most 10 nM.
As for `c1ccc2c(c1)ncn2-c1ccc2c(c1)C[C@]1(CCCN(C3CCC3)CC1)O2` (single isomer, unassigned) [Compound 52, 5′-(1H-Benzo[d]imidazol-1-yl)-1-cyclobutyl-3′H-spiro[azepane-4,2′-benzofuran]], the IC50 in data set [1] is at most 100 nM.
With `N#Cc1ccc(-c2ccc3c(c2)OC2(CCN(C4CCC4)CC2)C3)cc1` [Compound 35, 4-(1′-Cyclobutyl-3H-spiro[benzofuran-2,4′-piperidine]-6-yl)benzonitrile], the IC50 in data set [1] was at most 100 nM.
Turning to `c1cc2c(cc1-c1ccc3cncn3c1)CC1(CCN(C3CCC3)CC1)O2` [Compound 57, 1′-Cyclobutyl-5-(imidazo[1,5-a]pyridin-6-yl)-3H-spiro[benzofuran-2,4′-piperidine]], the IC50 in data set [1] is at most 10 nM.
The same measure, in the same setting: under `CC(C1CCC1)N1CCC2(CC1)Cc1ccccc1O2` (stereo not drawn) [Compound 4, 1′-(1-Cyclobutylethyl)-3H-spiro[benzofuran-2,4′-piperidine]] stands at most 1000 nM; under `c1cc2c(cc1N1CCCCC1)CC1(CCN(C3CCC3)CC1)O2` [Compound 34, 1′-Cyclobutyl-5-(piperidin-1-yl)-3H-spiro[benzofuran-2,4′-piperidine]], at most 100 nM.
For `Brc1ccc2c(c1)CC1(CCN3CCCCC3C1)O2` (single isomer, unassigned) [Compound 73, 5-Bromo-1′,3′,4′,6′,7′,8′,9′,9a′-octahydro-3H-spiro[benzofuran-2,2′-quinolizine]], in data set [1], the IC50 was at most 100 nM.
On the same count and under the same terms, the same measure for `c1cc2c(cc1CN1CCOCC1)OC1(CCN(C3CCC3)CC1)C2` [Compound 44, 1′-Cyclobutyl-6-(morpholinomethyl)-3H-spiro[benzofuran-2,4′-piperidine]]: at most 100 nM; for `Cc1cn2cc(-c3ccc4c(c3)CC3(CCN(C5CCC5)CC3)O4)ccc2n1` [Compound 54, 1′-Cyclobutyl-5-(2-methylimidazo[1,2-a]pyridin-6-yl)-3H-spiro[benzofuran-2,4′-piperidine]]: at most 10 nM; for `CC(=O)Nc1ccc(-c2ccc3c(c2)CC2(CCN(C4CCC4)CC2)O3)cc1` [Compound 6, N-(4-(1′-Cyclobutyl-3H-spiro[benzofuran-2,4′-piperidine]-5-yl)phenyl)acetamide]: at most 10 nM.
On the same count and under the same terms, the same measure for `c1cc2c(cc1-c1cnc3[nH]ncc3c1)CC1(CCN(C3CCC3)CC1)O2` [Compound 64, 1′-Cyclobutyl-5-(1H-pyrazolo[3,4-b]pyridin-5-yl)-3H-spiro[benzofuran-2,4′-piperidine]]: at most 10 nM.
On to `c1cc2c(cc1CN1CCOCC1)CC1(CCN(C3CCC3)CC1)O2` [Compound 40, 1′-Cyclobutyl-5-(morpholinomethyl)-3H-spiro[benzofuran-2,4′-piperidine]], for which the IC50 in data set [1] is at most 10 nM. Moreover, in data set [2] (3 mg/kg), the concentration at 1 hr was 900 ng/g and the concentration at 24 hr worked out at 140 ng/g.
Regarding `c1ccc2c(c1)CCN(Cc1ccc3c(c1)CC1(CCN4CCCCC4C1)O3)C2` (stereo not drawn) [Compound 80, 5-((3,4-Dihydroisoquinolin-2(1H)-yl)methyl)-1′,3′,4′,6′,7′,8′,9′,9a′-octahydro-3H-spiro[benzofuran-2,2′-quinolizine]], the IC50 in data set [1] was at most 10 nM.
Still for that read-out and setting: the same measure for `CC(=O)Nc1ccc(-c2ccc3c(c2)CC2(CCN(C4CCN(C)CC4)CC2)O3)cc1` [Compound 9, N-(4-(1′-(1-Methylpiperidin-4-yl)-3H-spiro[benzofuran-2,4′-piperidine]-5-yl)phenyl)acetamide]: at most 100 nM.
On to `c1cc2c(cc1CN1CCCC1)CC1(CCN(C3CCC3)CC1)O2` [Compound 41, 1′-Cyclobutyl-5-(pyrrolidin-1-ylmethyl)-3H-spiro[benzofuran-2,4′-piperidine]], for which the IC50 in data set [1] is at most 10 nM. In addition, in data set [2] (3 mg/kg), the concentration at 1 hr is under 25 ng/g and the concentration at 24 hr is 450 ng/g.
For `c1cn2cc(-c3ccc4c(c3)OC3(CCCN(C5CCC5)CC3)C4)ccc2n1` (stereo not drawn) [Compound 69, 1-Cyclobutyl-6′-(imidazo[1,2-a]pyridin-6-yl)-3′H-spiro[azepane-4,2′-benzofuran]], the IC50 in data set [1] is at most 100 nM.
On the same count and under the same terms, under `c1ccc2c(c1)CCN(Cc1ccc3c(c1)CC1(CCN4CCCC4C1)O3)C2` (stereo not drawn) [Compound 93] stands at most 10 nM.
In the case of `CC(=O)Nc1ccc(-c2ccc3c(c2)CC2(CCN(C(C)C4CCC4)CC2)O3)cc1` (stereo not drawn) [Compound 12, N-(4-(1′-(1-Cyclobutylethyl)-3H-spiro[benzofuran-2,4′-piperidine]-5-yl)phenyl)acetamide], in data set [1], the IC50 was at most 10 nM.
